# Laboratory results as given in patent US7053178B2, “Synthetic peptides and kits for diagnosis of anti-phospholipid syndrome” (Yeda Research Development Co., LTD, priority 1998, dated 2006).
# Where no end group is shown, it is not given here.
# System: anti-β2GPI ILA-1 mAb
# Assay: U937 monocyte adhesion to HUVEC exposed to ILA-1 mAb
# Format: cell-based, human
# Details: ILA-1 mAb preincubated with peptide, 10 μM peptide
# Method: FIGS. 3A–3C are graphs showing inhibition of U937 monocyte cell adhesion to HUVEC upon exposure to anti-β2GPI ILA-1, ILA-3 and G-3 mAbs and increasing concentrations of the inhibitory monomer peptides A, B and C, respectively, and of unrelated peptide D as control. The percentage of inhibition of adhesion was calculated as follows: % inhibition of adhesion=CPM in the presence of anti-β2GPI mAb−CPM in the presence of anti-β2GPI mAb and the tested peptide/CPM in the presence of anti-β2GPI mAb×100 (CPM=counts/min). Each point represents mean±SD of three different experiments.
# (g) Adherence of U937 monocyte cells to endothelial cells in the presence of anti-β2GPI mAbs and the inhibitory peptides. This assay was performed as previously described (Carvalho et al., 1996). Briefly, U937 cells (a monocyte/macrophage-like cell line) were pretreated with heat-aggregated gamma-globulin for 30 min at 37° C. […] Radioactivity associated with adherence was quantified by beta-scintillation spectroscopy. The results were expressed as percent of added U937 cells that adhered and are presented as the mean±SD from 3–5 replicate wells.
# The adhesion of monocytes to endothelial cells (EC) is considered a marker of EC activation. The percentage of adhesion is expressed as the portion of added U937 monocyte cells adhering to the HUVEC (thus reflecting the percentage of HUVEC coverage by the monocytes). […]
sequence,measurement,value
NTLKTPRVGG [Peptide A],inhibition of adhesion of U937 to HUVEC,84%
